Data on 15 compounds can be found in US9382255B2, “Substituted pyrrolopyrimidinylamino-benzothiazolones as MKNK kinase inhibitors” (BAYER PHARMA AKTIENGESELLSCHAFT, priority 2012, dated 2016).

The target in the assay is T1, human full-length MKNK1 (Homo sapiens, UniProt Q9BUB5, T385D).
T1 construct: GST (N); purchased Carna Biosciences 02-145; host or cells: insect cells (baculovirus expression system)
T1 sequence (Q9BUB5 1-424 isoform Q9BUB5-2 T344D): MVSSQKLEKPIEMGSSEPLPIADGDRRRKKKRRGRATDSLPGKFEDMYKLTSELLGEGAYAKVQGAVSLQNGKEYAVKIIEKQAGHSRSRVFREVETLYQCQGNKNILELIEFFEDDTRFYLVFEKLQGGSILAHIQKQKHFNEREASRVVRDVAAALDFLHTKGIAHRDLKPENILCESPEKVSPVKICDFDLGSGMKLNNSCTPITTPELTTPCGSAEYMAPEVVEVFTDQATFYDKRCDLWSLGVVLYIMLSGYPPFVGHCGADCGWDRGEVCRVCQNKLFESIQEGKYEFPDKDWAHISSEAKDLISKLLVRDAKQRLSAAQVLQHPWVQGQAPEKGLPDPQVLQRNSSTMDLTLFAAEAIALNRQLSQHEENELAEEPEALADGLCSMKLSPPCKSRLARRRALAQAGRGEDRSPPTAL
Kind of assay: MKNK1 kinase high ATP assay (TR-FRET). The settings on record: high ATP (2 mM final), 15 min preincubation with enzyme, GST-MKNK1 (T344D). It is filed as biochemical. The method, then:
MKNK1 Kinase High ATP Assay
MKNK1-inhibitory activity at high ATP of compounds of the present invention after their preincubation with MKNK1 was quantified employing the TR-FRET-based MKNK1 high ATP assay as described in the following paragraphs.
A recombinant fusion protein of Glutathione-S-Transferase (GST, N-terminally) and human full-length MKNK1 (amino acids 1-424 and T344D of accession number BAA 19885.1), expressed in insect cells using baculovirus expression system and purified via glutathione sepharose affinity chromatography, was purchased from Carna Biosciences (product no 02-145) and used as enzyme. As substrate for the kinase reaction the biotinylated peptide biotin-Ahx-IKKRKLTRRKSLKG (C-terminus in amide form) was used, which can be purchased e.g. from the company Biosyntan (Berlin-Buch, Germany).
For the assay 50 nL of a 100 fold concentrated solution of the test compound in DMSO was pipetted into a black low volume 384 well microtiter plate (Greiner Bio-One, Frickenhausen, Germany), 2 μL of a solution of MKNK1 in aqueous assay buffer [50 mM HEPES pH 7.5, 5 mM MgCL2, 1.0 mM dithiothreitol, 0.005% (v/v) Nonidet-P40 (Sigma)] was added and the mixture was incubated for 15 min at 22° C. to allow pre-binding of the test compounds to the enzyme before the start of the kinase reaction. Then the kinase reaction was started by the addition of 3 μL of a solution of adenosine-tri-phosphate (ATP, 3.3 mM=>final conc. in the 5 μL assay volume is 2 mM) and substrate (0.1 μM=>final conc. in the 5 μL assay volume is 0.06 μM) in assay buffer and the resulting mixture was incubated for a reaction time of 30 min at 22° C. The concentration of MKNK1 was adjusted depending of the activity of the enzyme lot and was chosen appropriate to have the assay in the linear range, typical concentrations were in the range of 0.003 μg/mL. The reaction was stopped by the addition of 5 μL of a solution of TR-FRET detection reagents (5 nM streptavidine-XL665 [Cisbio Bioassays, Codolet, France] and 1 nM anti-ribosomal protein S6 (pSer236)-antibody from Invitrogen [#44921G] and 1 nM LANCE EU-W1024 Labeled ProteinG [Perkin-Elmer, product no. AD0071]) in an aqueous EDTA-solution (100 mM EDTA, 0.1% (w/v) bovine serum albumin in 50 mM HEPES pH 7.5).
The resulting mixture was incubated for 1 h at 22° C. to allow the formation of complex between the phosphorylated biotinylated peptide and the detection reagents. Subsequently the amount of phosphorylated substrate was evaluated by measurement of the resonance energy transfer from the Eu-chelate to the streptavidine-XL. Therefore, the fluorescence emissions at 620 nm and 665 nm after excitation at 350 nm were measured in a TR-FRET reader, e.g. a Rubystar (BMG Labtechnologies, Offenburg, Germany) or a Viewlux (Perkin-Elmer). The ratio of the emissions at 665 nm and at […] was taken as the measure for the amount of phosphorylated substrate. The data were normalised (enzyme reaction without inhibitor=0% inhibition, all other assay components but no enzyme=100% inhibition).
Background: Time-resolved FRET reads energy transfer from a long-lived donor to a nearby acceptor.
What is called IC50 is the concentration at which inhibition is half-maximal. A higher IC50 goes with lower potency. In turn, `CN(C)C1CCN(C(=O)c2cc3c(Nc4ccc5[nH]c(=O)sc5c4)ncnc3[nH]2)CC1` [Example 31, 6-[(6-{[4-(Dimethylamino)piperidin-1-yl]carbonyl}-7H-pyrrolo[2,3-d]pyrimidin-4-yl)amino]-1,3-benzothiazol-2(3H)-one] registered a concentration for half-maximal inhibition (IC50) of 40 nM. The result for `O=c1[nH]c2ccc(Nc3ncnc4[nH]cc(F)c34)cc2s1` [Example 2, 6-[(5-Fluoro-7H-pyrrolo[2,3-d]pyrimidin-4-yl)amino]-1,3-benzothiazol-2(3H)-one] reads 27 nM; that for `CCOC(=O)c1cc2c(Nc3ccc4[nH]c(=O)sc4c3)ncnc2[nH]1` [Example 10, Ethyl 4-[(2-oxo-2,3-dihydro-1,3-benzothiazol-6-yl)amino]-7H-pyrrolo[2,3-d]pyrimidine-6-carboxylate], 2 nM. `O=c1[nH]c2ccc(Nc3ncnc4[nH]c(C#CCO)cc34)cc2s1` [Example 11, 6-{[6-(3-Hydroxyprop-1-yn-1-yl)-7H-pyrrolo[2,3-d]pyrimidin-4-yl]amino}-1,3-benzothiazol-2(3H)-one] showed an IC50 of 6 nM.

In turn, `Cc1cc2c(Nc3ccc4[nH]c(=O)sc4c3)ncnc2[nH]1` [Example 14, 6-[(6-Methyl-7H-pyrrolo[2,3-d]pyrimidin-4-yl)amino]-1,3-benzothiazol-2(3H)-one] registered an IC50 of 25 nM. Then `CC(C)Cc1[nH]c2ncnc(Nc3ccc4[nH]c(=O)sc4c3)c2c1C(C)C` [Example 21, 6-[(6-Isobutyl-5-isopropyl-7H-pyrrolo[2,3-d]pyrimidin-4-yl)amino]-1,3-benzothiazol-2(3H)-one], with 32 nM; and `CC(C)NC(=O)c1c[nH]c2ncnc(Nc3ccc4[nH]c(=O)sc4c3)c12` [Example 5, N-Isopropyl-4-[(2-oxo-2,3-dihydro-1,3-benzothiazol-6-yl)amino]-7H-pyrrolo[2,3-d]pyrimidine-5-carboxamide], with 4 nM; and `CCCc1[nH]c2ncnc(Nc3ccc4[nH]c(=O)sc4c3)c2c1CC` [Example 22, 6-[(5-Ethyl-6-propyl-7H-pyrrolo[2,3-d]pyrimidin-4-yl)amino]-1,3-benzothiazol-2(3H)-one], with 16 nM. The result for `Cc1ccc(S(=O)(=O)c2cc3c(Nc4ccc5[nH]c(=O)sc5c4)ncnc3[nH]2)cc1` [Example 24, 6-({6-[(4-Methylphenyl)sulfonyl]-7H-pyrrolo[2,3-d]pyrimidin-4-yl}amino)-1,3-benzothiazol-2(3H)-one] reads 5 nM; that for `O=C(c1[nH]c2ncnc(Nc3ccc4[nH]c(=O)sc4c3)c2c1Br)N1CCCCC1` [Example 33, 6-{[5-Bromo-6-(piperidin-1-ylcarbonyl)-7H-pyrrolo[2,3-d]pyrimidin-4-yl]amino}-1,3-benzothiazol-2(3H)-one], 24 nM; that for `O=c1[nH]c2ccc(Nc3ncnc4[nH]c(Br)cc34)cc2s1` [Example 8, 6-[(6-Bromo-7H-pyrrolo[2,3-d]pyrimidin-4-yl)amino]-1,3-benzothiazol-2(3H)-one], 5 nM. The result for `CCOC(=O)c1cc2c(Nc3cc4sc(=O)[nH]c4cc3OC)ncnc2[nH]1` [Example 25, Ethyl 4-[(5-methoxy-2-oxo-2,3-dihydro-1,3-benzothiazol-6-yl)amino]-7H-pyrrolo[2,3-d]pyrimidine-6-carboxylate] reads 4 nM; that for `O=c1[nH]c2ccc(Nc3ncnc4[nH]c(Cl)cc34)cc2s1` [Example 16, 6-[(6-Chloro-7H-pyrrolo[2,3-d]pyrimidin-4-yl)amino]-1,3-benzothiazol-2(3H)-one], 11 nM. Turning to `O=C(O)c1c[nH]c2ncnc(Nc3ccc4[nH]c(=O)sc4c3)c12` [Example 3, 4-[(2-Oxo-2,3-dihydro-1,3-benzothiazol-6-yl)amino]-7H-pyrrolo[2,3-d]pyrimidine-5-carboxylic acid], the IC50 came out at 7 nM. This IC50 lies about 1.6-fold lower than the previous one. Regarding `O=c1[nH]c2ccc(Nc3ncnc4[nH]ncc34)cc2s1` [Example 7, 6-(1H-pyrazolo[3,4-d]pyrimidin-4-ylamino)-1,3-benzothiazol-2(3H)-one], the IC50 was found to be 44 nM.
